The source of these data is article PMC8802628, “Selective activation of PFKL suppresses the phagocytic oxidative burst” (Cell, 2021).

In test [1] the test system is human peripheral blood neutrophils. The experiment in a line: NETosis assay in human neutrophils (SYTOX Green, DNA area). The test is classed as cell-based. The following applies: for inhibition of PMA-induced NETosis: SAR analogs compared to LDC7559; for fold more potent than LDC7559, inhibition of NETosis: compared to LDC7559. The method, then:
Freshly purified neutrophils were plated at 6 × 10^3 cells/well in glass bottom 96-well plates (SensoPlate, Greiner Bio-One 82050-792) in the RPMI medium described above. Cells were pretreated with DMSO vehicle, 0.5 μM NA-11, 100 μM apocynin, 0.5 μM and 5 μM PALP, or 0.5 μM and 5 μM LDC7559 for 30 min, and then stimulated with 50 nM PMA, 1 μM f-MLP, 5 μg/mL cholesterol crystals, 10 μg/mL LPS, 25 μM nigericin, or 25 μM calcymicin (A23187) for 3 h (except in Figures S1A, 6A and S7C, where cells were stimulated for 4 h). Cells were fixed and permeabilized in 2.5% paraformaldehyde (PFA) and 0.02% Triton X-100 in PBS for 30 min. For quantification of NETosis, cells were stained with 150 nM SYTOX Green and imaged in a KEYENCE Fluorescence Microscope (KEYENCE, ZB-X800E) at 10 x magnification. For immunolabeling, fixed cells were blocked with 2% BSA for 1 h, and then stained with anti-CitH3 and anti-MPO antibodies at a dilution of 1/200 in 1% BSA in PBS. Images were taken at 60 x magnification using an ImageXpress Micro Confocal high-content imaging system (Molecular Devices).
Semi-automated analysis of both phase and fluorescence images of SYTOX Green-stained neutrophils used a specialized MATLAB algorithm. Total cells were counted by scoring phase standard deviation and radial symmetry. NETosis was classified in cells by measuring the DNA area in the fluorescence image and comparing with a select internal training set for each experiment. Unstimulated cells and PMA-stimulated, […] cells served as negative controls. PMA-stimulated cells served as a positive control. NET-forming cells are presented as a percentage of total cells.

Test [2] has as its target T1, PFKL(V545L, V582M) (PFKL−hook) (Homo sapiens, UniProt P17858, V545L/V582M).
T1 construct: made in house; host or cells: Sf9 insect cells (baculovirus)
T1 sequence (P17858 1-780 V545L/V582M): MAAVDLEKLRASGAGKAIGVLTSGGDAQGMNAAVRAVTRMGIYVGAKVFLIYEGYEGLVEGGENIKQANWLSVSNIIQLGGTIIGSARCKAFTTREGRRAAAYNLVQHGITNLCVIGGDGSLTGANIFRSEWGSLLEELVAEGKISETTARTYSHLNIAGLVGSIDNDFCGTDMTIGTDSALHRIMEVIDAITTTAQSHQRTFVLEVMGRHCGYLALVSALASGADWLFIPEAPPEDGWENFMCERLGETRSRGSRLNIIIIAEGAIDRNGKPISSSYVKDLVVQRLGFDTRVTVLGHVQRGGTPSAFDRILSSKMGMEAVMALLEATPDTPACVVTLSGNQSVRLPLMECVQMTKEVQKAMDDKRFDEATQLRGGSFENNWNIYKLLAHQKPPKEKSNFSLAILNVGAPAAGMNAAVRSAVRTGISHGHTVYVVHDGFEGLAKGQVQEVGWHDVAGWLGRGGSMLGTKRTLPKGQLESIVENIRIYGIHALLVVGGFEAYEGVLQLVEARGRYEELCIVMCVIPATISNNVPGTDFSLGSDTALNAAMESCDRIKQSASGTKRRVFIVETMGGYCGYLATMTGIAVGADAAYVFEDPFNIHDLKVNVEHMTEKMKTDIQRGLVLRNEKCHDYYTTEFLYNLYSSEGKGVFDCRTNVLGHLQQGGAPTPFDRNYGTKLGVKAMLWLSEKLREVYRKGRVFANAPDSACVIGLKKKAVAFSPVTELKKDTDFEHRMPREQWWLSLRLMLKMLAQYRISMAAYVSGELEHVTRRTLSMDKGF
In words: Recombinant PFKL−hook activity assay. The test is classed as biochemical. The settings on record: for EC50: pH 7.5, 3.1 mM ATP, 2.5 mM F6P, mean ± SEM, read-out: EC50, activation of PFKL−hook. The source says:
Recombinant N-terminal His-tagged human PFKL (NP_002617), PFKM (NP_000280), and PFKP (NM_002627.4) were generated as described ([Webb et al., 2015], [2017]). Point mutants of PFK1 were generated using the QuikChange Lightning kit (Aligent).
His-tagged PFK1 was expressed and purified as described with slight modifications ([Webb et al., 2015], [2017]). Briefly, baculovirus was generated using the Bac-to-Bac Expression system (Invitrogen). PFK1 was expressed in 2-5 × 10^6 sf9 cells at a multiplicity of infection of two for 48 h. Cells were lysed in 20 mM HEPES, pH 7.5, 80 mM potassium phosphate, 1 mM 2-mercapentoethanol, 10% glycerol, 10 mM imidazole, and EDTA-free Protease Inhibitor Cocktail (Abcam) with a Dounce homogenizer. The soluble lysate was incubated with HisPur cobalt resin (ThermoFisher Scientific). The resin was washed with 5 bead volumes lysis buffer, 10 bead volumes lysis buffer containing 2 M NaCl, and 5 further bead volumes lysis buffer. PFK1 was eluted in lysis buffer containing 100 mM imidazole. Fractions containing protein were pooled, passed over a desalting column equilibrated in freezing buffer [20 mM HEPES pH 7.5, 1 mM DTT, 500 μM ammonium sulfate, 5% glycerol, 1 mM ATP, and 100 μM EDTA] and concentrated using an Amicon Ultracel-30K Centrifugal Filter Unit (MilliporeSigma). Protein was quantified using a Bradford Protein Assay kit (ThermoFisher Scientific), and aliquotes frozen in liquid nitrogen for storage at −80°C.
PFK1 activity was determined using the rate of FBP production via an auxiliary enzyme assay adapted to a 96-well format ([Brüser et al., 2012]; [Webb et al., 2015]). The auxiliary enzymes aldolase, triosephosphate isomerase, and glycerol phosphate dehydrogenase were purchased from MilliporeSigma as ammonium sulfate slurries and desalted using an Amicon Ultracel-10K Centrifugal Filter Unit. For assays containing FBP, the rate of ADP production was determined using the auxiliary enzymes pyruvate kinase (PK) and lactate dehydrogenase (LDH) (MilliporeSigma) in a buffer containing 250 μM phosphoenolpyruvic acid, […] NADH, 50 mM HEPES pH 7.5, 100 mM KCl, 1 mM DTT, and effector concentrations as described in the text. The temperature was equilibrated to 25°C for 5 min before initiating the reaction 10 mM MgCl2. Absorbance at 340 nm was measured using a Varioskan LUX Multimode microplate reader (ThermoFisher). Kinetic parameters were generated by nonlinear regression analysis using Prism (GraphPad Software) and are the mean of a minimum of three measurements from two independent preparations of protein. One unit of activity was defined as the amount of enzyme that catalyzed the formation of 1 μmol of fructose 1,6-bisphosphate per min at 25°C. […]

Molecules are shown by their SMILES. Where “and” joins values, the source holds several entries; their conditions need not be identical. Equal values may be shown once.

By EC50 is commonly meant the concentration at which the effect is half-maximal. Usually IC50 stands for the concentration needed to halve the response being measured.

With `COc1ccccc1-c1cc2n(n1)Cc1ccc(NC(C)=O)cc1OC2` [LDC7559, reference compound], the “inhibition of PMA-induced NETosis” value in test [1] (PMA) is “inhibited PMA-induced NETosis in a dose-dependent manner”. For the same compound, the “ability to inhibit NETosis (activity range)” value in test [1] (neutrophils) is recorded as “low-micromolar range”. Besides, the “spontaneous NETosis” value in test [1] (no stimulus) is recorded as “did not prevent spontaneous NETosis”.

`O=C(CO)[C@@H](O)[C@H](O)[C@H](O)COP(=O)(O)O` [F6P, fructose 6-phosphate]: in test [2] (PFKL−hook, pH 7.5, 225 μM ATP), the “Vmax,F6P” value is 11.50 ± 0.57 micromoles FBP per minute per milligram PFK1 and the “hF6P (Hill coefficient)” value is listed as 2.87 ± 0.50.

Turning to `CC(=O)Nc1ccc2c(c1)OCc1cc(-c3ccccc3)nn1C2` [NA-5], the “fold more potent than LDC7559, inhibition of NETosis” value in test [1] was ~ 10 fold. Besides, the EC50 in test [2] worked out at 18.1 ± 3.19 nM.

`CC(=O)Nc1ccc2c(c1)OCc1cc(-c3ccccc3C#CCCCO)nn1C2` [NA-11]: the “NOX2-dependent NETosis induced by fMLP, LPS, and cholesterol crystals” value in test [1] (0.5 μM, 4 h stimulation) is reported as “inhibited NOX2-dependent NETosis”. The “inhibition of PMA-induced NETosis” value in test [1] (PMA) is “inhibiting NOX2-dependent NETosis induced by PMA”. Besides, the “fold more potent than LDC7559, inhibition of NETosis” value in test [1] was ~ 1,000 fold and 1,000 fold. Besides, in test [1] (human PMNs, PMA, read-out: IC50, inhibition of PMA-induced NETosis), the IC50 worked out at 4 ± 0.5 nM. Besides, in test [2], the EC50 was 53.3 ± 5.77 nM.
